Results published in patent US10966426B2, “Herbicidal compositions comprising phenylpyrimidines” (BASF SE, priority 2016, dated 2021).

Legend:
Assay type in all cases: in vivo
Alopecurus myosuroides = experiment: greenhouse post-emergence treatment, ALOMY; details: for % activity: 21 DAT
Protocol: (§1) The culture containers used were plastic pots containing loamy sand with approximately 3.0% of humus as substrate. The seeds of the test plants were sown separately for each species.
(§2) To this end, the test plants were either sown directly, and grown in the same containers, or they were first grown separately as seedlings and transplanted into the test containers a few days prior to treatment.
(§3) Depending on the species, the plants were kept at 10-25° C. and 20-35° C., respectively.
(§4) The test period extended over 2 to 4 weeks. During this time, the plants were tended and their response to the individual treatments was evaluated.
(§5) Evaluation was carried out using a scale from 0 to 100. 100 means no emergence of the plants, or complete destruction of at least the above-ground parts, and 0 means no damage or normal course of growth. A good herbicidal activity is given at values of at least 70, and very good herbicidal activity is given at values of at least 85.
(§6) In the examples, the solvent used was water.
(§7) In the examples below, using the method of S. R. Colby (1967) “Calculating synergistic and antagonistic responses of herbicide combinations”, Weeds 15, p. […] E=X+Y−(X·Y/100) where X=effect in percent using herbicide A at an application rate a; • Y=effect in percent using herbicide B at application rate b; • E=expected effect (in %) of herbicide A+herbicide B at application rates a+b.

Ambrosia elatior = experiment: greenhouse post-emergence treatment, AMBEL; details: 21 DAT, topramezone solo 6 gai/ha
Protocol: as §1
(§8) For the post-emergence treatment, the test plants were grown to a plant height of from 3 to 15 cm, depending on the plant habit, and only then treated with the active compounds which had been suspended or emulsified in water. To this end, the test plants were either sown directly, and grown in the same containers, or they were first grown separately as seedlings and transplanted into the test containers a few days prior to treatment.
as §3, §4, §5
(§9) The respective stated components A and B, and if appropriate, C were formulated as a 10% by weight strength emulsion concentrate and, with addition of the amount of solvent system, introduced into the spray liquor used for applying the active compound. In the examples, the solvent used was water.
(§10) In the examples below, using the method of S. R. Colby (1967) “Calculating synergistic and antagonistic responses of herbicide combinations”, Weeds 15, p. 22ff., the value E, which is expected if the activity of the individual active compounds is only additive, was calculated. E=X+Y−(X·Y/100) where X=effect in percent using herbicide A at an application rate a; • Y=effect in percent using herbicide B at application rate b; • E=expected effect (in %) of herbicide A+herbicide B at application rates a+b.

Polygonum convolvulus = experiment: greenhouse post-emergence treatment, POLCO; details: 21 DAT
Protocol: as §1, §8, §3, §4, §5, §9, §10

Echinocloa crus-galli = experiment: greenhouse post-emergence treatment, ECHCG; details: ECHCG, 21 DAT
Protocol: as §1, §8, §3, §4, §5, §9, §10

Matricaria chamomilla = experiment: greenhouse post-emergence treatment, MATCH
In short: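 Seeds sown per species in pots of loamy sand; seedlings either grown in place or transplanted days before treatment. Post-emergence spray of water-based liquor at 3–15 cm height. Injury rated 0–100 over 2 to 4 weeks.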

Lolium multiflorum = experiment: greenhouse post-emergence treatment, LOLMU; details: for % activity: 21 DAT
In short: (§11)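 Seeds sown per species in loamy sand substrate (about 3.0% humus); some raised separately and transplanted shortly before treatment. Treatments applied in water post-emergence, plants held at 10-25° C. or 20-35° C. by species, then scored after 2 to 4 weeks, where 100 means total kill and 0 no damage.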

Apera spica-venti = experiment: greenhouse post-emergence treatment, APESV
Protocol: as §1, §8, §3, §4, §5, §9, §10

Setaria viridis = experiment: greenhouse post-emergence treatment, SETVI
Protocol: as §1, §2, §3, §4, §5, §6, §7

Bromus sterilis = experiment: greenhouse post-emergence treatment, BROST; details: for % activity: 21 DAT
In short: as §11

Poa annua = experiment: greenhouse post-emergence treatment, POAAN; details: for % activity: 21 DAT
Protocol: as §1, §8, §3, §4, §5, §9, §10

Papaver rhoeas = experiment: greenhouse post-emergence treatment, PAPRH; details: for % activity: 21 DAT
Protocol: as §1, §8, §3, §4, §5, §9, §10

Digitaria sanguinalis = experiment: greenhouse post-emergence treatment, DIGSA
Protocol: as §1, §2, §3, §4, §5, §6, §7

Avena fatua = experiment: greenhouse post-emergence treatment, AVEFA; details: Avena fatua, 480 h, 20 DAT, AVEFA, Table X4, read-out: % activity, solo application
In short: as §11

Galium aparine = experiment: greenhouse post-emergence treatment, GALAP; details: Galium aparine, 480 h
Protocol: as §1, §8, §3, §4, §5, §9, §10

Brachiaria decumbens = experiment: greenhouse post-emergence treatment, BRADC; details: Urochloa decumbens, 480 h, read-out: % activity
In short: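 Scale 0–100 damage rating (100 = complete destruction of above-ground parts, 0 = normal growth), read 2 to 4 weeks after post-emergence application of aqueous spray liquor to plants 3–15 cm tall.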

Stellaria media = experiment: greenhouse post-emergence treatment, STEME; details: Stellaria media, 480 h, read-out: % activity
Protocol: as §1, §8, §3, §4, §5, §9, §10

Polygonum aviculare = experiment: greenhouse post-emergence treatment, POLAV; details: Polygonum aviculare, 480 h, 20 DAT, POLAV, Table X4, read-out: % activity, solo application
Protocol: as §1, §8, §3, §4, §5, §9, §10

[1] = 21 DAT, topramezone solo 6 gai/ha
[2] = 21 DAT, topramezone solo 3 gai/ha
[3] = Alopecurus myosuroides, 480 h, read-out: % activity
[4] = Lolium multiflorum, 480 h, read-out: % activity
[5] = Bromus sterilis, 480 h, read-out: % activity
[6] = Poa annua, 480 h, read-out: % activity
[7] = Digitaria sanguinalis, 480 h, read-out: % activity

Cc1c(C(=O)c2cnn(C)c2O)ccc(S(C)(=O)=O)c1C1=NOCC1 [topramezone]
0%: % activity (Alopecurus myosuroides; topramezone solo 3 gai/ha) | % activity (Alopecurus myosuroides; topramezone solo 6 gai/ha) | % activity (Alopecurus myosuroides; topramezone solo 12 gai/ha) | % activity (Alopecurus myosuroides; ALOMY, solo topramezone (SC 336 g/l) 3 gai/ha) | % activity (Alopecurus myosuroides; ALOMY, solo topramezone (SC 336 g/l) 6 gai/ha) | % activity (Alopecurus myosuroides; ALOMY, solo topramezone (SC 336 g/l) 12 gai/ha) | % activity (Polygonum convolvulus; topramezone solo 3 gai/ha) | % activity (Lolium multiflorum; topramezone solo 3 gai/ha) | % activity (Lolium multiflorum; topramezone solo 6 gai/ha) | % activity (Lolium multiflorum; LOLMU, solo topramezone (SC 336 g/l) 6 gai/ha) | % activity (Apera spica-venti; [2]) | % activity (Apera spica-venti; [1]) | % activity (Bromus sterilis; topramezone solo 3 gai/ha) | % activity (Bromus sterilis; topramezone solo 6 gai/ha) | % activity (Poa annua; topramezone solo 3 gai/ha) | % activity (Poa annua; topramezone solo 6 gai/ha) | % activity (Poa annua; topramezone solo 12 gai/ha) | % activity (Poa annua; topramezone solo 24 gai/ha) | % activity (Poa annua; POAAN, solo topramezone (SC 336 g/l) 3 gai/ha) | % activity (Poa annua; POAAN, solo topramezone (SC 336 g/l) 6 gai/ha) | % activity (Poa annua; POAAN, solo topramezone (SC 336 g/l) 12 gai/ha) | % activity (Poa annua; POAAN, solo topramezone (SC 336 g/l) 24 gai/ha) | % activity (Papaver rhoeas; PAPRH, solo topramezone (SC 336 g/l) 3 gai/ha) | % activity (Papaver rhoeas; PAPRH, solo topramezone (SC 336 g/l) 6 gai/ha)
20%: % activity (Lolium multiflorum; topramezone solo 24 gai/ha) | % activity (Papaver rhoeas; topramezone solo 12 gai/ha)
40%: % activity (Papaver rhoeas; topramezone solo 24 gai/ha)
95%: % activity (Ambrosia elatior)
70%: % activity (Echinocloa crus-galli; solo topramezone (SC 336 g/l) 3 gai/ha) | % activity (Setaria viridis; [2])
98%: % activity (Echinocloa crus-galli; solo topramezone (SC 336 g/l) 12 gai/ha) | % activity (Echinocloa crus-galli; solo topramezone (SC 336 g/l) 24 gai/ha)
75%: % activity (Digitaria sanguinalis; [2])
30%: % activity (Polygonum convolvulus; topramezone solo 6 gai/ha) | % activity (Polygonum convolvulus; topramezone solo 12 gai/ha) | % activity (Matricaria chamomilla; [1]) | % activity (Apera spica-venti; 21 DAT, topramezone solo 12 gai/ha)
25%: % activity (Bromus sterilis; topramezone solo 24 gai/ha)
85%: % activity (Polygonum convolvulus; topramezone solo 24 gai/ha)
5%: % activity (Bromus sterilis; topramezone solo 12 gai/ha)
10%: % activity (Alopecurus myosuroides; topramezone solo 24 gai/ha) | % activity (Lolium multiflorum; topramezone solo 12 gai/ha)

N#Cc1cc(Br)c(O)c(Br)c1 [Bromoxynil, bromoxynil]
60%: pest or weed control at 125 g/ha (Stellaria media)
0%: inhibition at 31.25 g/ha (Avena fatua; 31.25 gai/ha (EC 235 g/l)) | inhibition at 125 g/ha (Avena fatua; 125 gai/ha (EC 235 g/l)) | pest or weed control at 31.25 g/ha (Alopecurus myosuroides; [3]) | pest or weed control at 62.5 g/ha (Alopecurus myosuroides; [3]) | pest or weed control at 125 g/ha (Alopecurus myosuroides; [3]) | pest or weed control at 31.25 g/ha (Brachiaria decumbens) | pest or weed control at 62.5 g/ha (Brachiaria decumbens) | inhibition at 31.25 g/ha (Lolium multiflorum; Lolium multiflorum, 480 h, 31.25 gai/ha (EC 235 g/l), 20 DAT, LOLMU, Table X4, read-out: % activity, solo application) | inhibition at 62.5 g/ha (Lolium multiflorum; Lolium multiflorum, 480 h, 62.5 gai/ha (EC 235 g/l), 20 DAT, LOLMU, Table X4, read-out: % activity, solo application) | inhibition at 125 g/ha (Lolium multiflorum; Lolium multiflorum, 480 h, 125 gai/ha (EC 235 g/l), 20 DAT, LOLMU, Table X4, read-out: % activity, solo application) | inhibition at 250 g/ha (Lolium multiflorum; Lolium multiflorum, 480 h, 250 gai/ha (EC 235 g/l), 20 DAT, LOLMU, Table X4, read-out: % activity, solo application) | pest or weed control at 31.25 g/ha (Lolium multiflorum; [4]) | pest or weed control at 62.5 g/ha (Lolium multiflorum; [4]) | pest or weed control at 125 g/ha (Lolium multiflorum; [4]) | pest or weed control at 250 g/ha (Lolium multiflorum; [4]) | % activity (Apera spica-venti; APESV, bromoxynil solo 250 gai/ha, 20 DAT) | inhibition at 31.25 g/ha (Setaria viridis; Setaria viridis, 480 h, 31.25 gai/ha (EC 235 g/l), 20 DAT, SETVI, Table X4, read-out: % activity, solo application) | inhibition at 250 g/ha (Setaria viridis; Setaria viridis, 480 h, 250 gai/ha (EC 235 g/l), 20 DAT, SETVI, Table X4, read-out: % activity, solo application) | pest or weed control at 31.25 g/ha (Bromus sterilis; [5]) | pest or weed control at 62.5 g/ha (Bromus sterilis; [5]) | pest or weed control at 125 g/ha (Bromus sterilis; [5]) | pest or weed control at 250 g/ha (Bromus sterilis; [5]) | pest or weed control at 31.25 g/ha (Poa annua; [6]) | pest or weed control at 62.5 g/ha (Poa annua; [6]) | pest or weed control at 125 g/ha (Poa annua; [6]) | pest or weed control at 250 g/ha (Poa annua; [6]) | inhibition at 31.25 g/ha (Digitaria sanguinalis; Digitaria sanguinalis, 480 h, 31.25 gai/ha (EC 235 g/l), 20 DAT, DIGSA, Table X4, read-out: % activity, solo application) | inhibition at 62.5 g/ha (Digitaria sanguinalis; Digitaria sanguinalis, 480 h, 62.5 gai/ha (EC 235 g/l), 20 DAT, DIGSA, Table X4, read-out: % activity, solo application) | inhibition at 125 g/ha (Digitaria sanguinalis; Digitaria sanguinalis, 480 h, 125 gai/ha (EC 235 g/l), 20 DAT, DIGSA, Table X4, read-out: % activity, solo application) | inhibition at 250 g/ha (Digitaria sanguinalis; Digitaria sanguinalis, 480 h, 250 gai/ha (EC 235 g/l), 20 DAT, DIGSA, Table X4, read-out: % activity, solo application) | pest or weed control at 31.25 g/ha (Digitaria sanguinalis; [7]) | pest or weed control at 62.5 g/ha (Digitaria sanguinalis; [7]) | pest or weed control at 125 g/ha (Digitaria sanguinalis; [7]) | pest or weed control at 250 g/ha (Digitaria sanguinalis; [7])
55%: inhibition at 31.25 g/ha (Matricaria chamomilla; Matricaria chamomilla, 480 h, 31.25 gai/ha (EC 235 g/l), 20 DAT, MATCH, Table X4, read-out: % activity, solo application)
30%: pest or weed control at 31.25 g/ha (Stellaria media)
40%: inhibition at 31.25 g/ha (Papaver rhoeas; Papaver rhoeas, 480 h, 31.25 gai/ha (EC 235 g/l), 20 DAT, PAPRH, Table X4, read-out: % activity, solo application)
65%: inhibition at 62.5 g/ha (Galium aparine; 62.5 gai/ha (EC 235 g/l), 20 DAT, GALAP, Table X4, read-out: % activity, solo application) | pest or weed control at 31.25 g/ha (Galium aparine; read-out: % activity) | pest or weed control at 62.5 g/ha (Galium aparine; read-out: % activity) | inhibition at 31.25 g/ha (Polygonum aviculare; 31.25 gai/ha (EC 235 g/l)) | inhibition at 62.5 g/ha (Polygonum aviculare; 62.5 gai/ha (EC 235 g/l)) | inhibition at 125 g/ha (Polygonum aviculare; 125 gai/ha (EC 235 g/l))
10%: pest or weed control at 250 g/ha (Alopecurus myosuroides; [3]) | pest or weed control at 125 g/ha (Brachiaria decumbens)
80%: inhibition at 125 g/ha (Galium aparine; 125 gai/ha (EC 235 g/l), 20 DAT, GALAP, Table X4, read-out: % activity, solo application) | pest or weed control at 125 g/ha (Galium aparine; read-out: % activity)
50%: pest or weed control at 62.5 g/ha (Stellaria media)
